From patent US9701662B2, “Herbicidal compounds” (Syngenta Participations AG, priority 2014, dated 2017)

How the values were obtained:
Format in all cases: in vivo
Lolium perenne (LOLPE) [1] = experiment: Pre-emergence glasshouse herbicide test; conditions: pre-emergence (sprayed after one day cultivation), 1000 g/h, evaluated after 13 days, five point scale
Description: (§1) Seeds of a variety of test species are sown in standard soil in pots (Lolium perenne (LOLPE), Solanum nigrum (SOLNI), Amaranthus retoflexus (AMARE), Setaria faberi (SETFA), Echinochloa crus-galli (ECHCG), Ipomoea hederacea (IPOHE)). After cultivation for one day (pre-emergence) or after 8 days cultivation (post-emergence) under controlled conditions in a glasshouse (at 24/16° C., day/night; 14 hours light; 65% humidity), the plants are sprayed with an aqueous spray solution derived from the formulation of the technical active ingredient in acetone/water (50:50) solution containing 0.5% Tween 20 (polyoxyethelyene sorbitan monolaurate, CAS RN 9005-64-5). Compounds are applied at 1000 g/h. The test plants are then grown in a glasshouse under controlled conditions in a glasshouse (at 24/16° C., day/night; 14 hours light; 65% humidity) and watered twice daily. After 13 days for pre and post-emergence, the test is evaluated for the percentage damage caused to the plant. The biological activities are shown in the following table on a five point scale (5=80-100%; 4=60-79%; 3=40-59%; 2=20-39%; 1=0-19%).

[2] = test system: Echinochloa crus-galli (ECHCG); experiment: Pre-emergence glasshouse herbicide test; conditions: pre-emergence (sprayed after one day cultivation), 1000 g/h, evaluated after 13 days, five point scale
Description: as §1

[3] = test system: Amaranthus retoflexus (AMARE); experiment: Pre-emergence glasshouse herbicide test; conditions: pre-emergence (sprayed after one day cultivation), 1000 g/h, evaluated after 13 days, five point scale
Description: as §1

Solanum nigrum (SOLNI) [4] = experiment: Pre-emergence glasshouse herbicide test; conditions: pre-emergence (sprayed after one day cultivation), 1000 g/h, evaluated after 13 days, five point scale
Description: as §1

[5] = test system: Ipomoea hederacea (IPOHE); experiment: Pre-emergence glasshouse herbicide test; conditions: pre-emergence (sprayed after one day cultivation), 1000 g/h, evaluated after 13 days, five point scale
Description: as §1

Setaria faberi (SETFA) [6] = experiment: Pre-emergence glasshouse herbicide test; conditions: pre-emergence (sprayed after one day cultivation), 1000 g/h, evaluated after 13 days, five point scale
Description: as §1

Lolium perenne (LOLPE) [7] = experiment: Post-emergence glasshouse herbicide test; conditions: post-emergence (sprayed after 8 days cultivation), 1000 g/h, evaluated after 13 days, five point scale
Description: as §1

[8] = test system: Echinochloa crus-galli (ECHCG); experiment: Post-emergence glasshouse herbicide test; conditions: post-emergence (sprayed after 8 days cultivation), 1000 g/h, evaluated after 13 days, five point scale
Description: as §1

[9] = test system: Amaranthus retoflexus (AMARE); experiment: Post-emergence glasshouse herbicide test; conditions: post-emergence (sprayed after 8 days cultivation), 1000 g/h, evaluated after 13 days, five point scale
Description: as §1

Solanum nigrum (SOLNI) [10] = experiment: Post-emergence glasshouse herbicide test; conditions: post-emergence (sprayed after 8 days cultivation), 1000 g/h, evaluated after 13 days, five point scale
Description: as §1

[11] = test system: Ipomoea hederacea (IPOHE); experiment: Post-emergence glasshouse herbicide test; conditions: post-emergence (sprayed after 8 days cultivation), 1000 g/h, evaluated after 13 days, five point scale
Description: as §1

Setaria faberi (SETFA) [12] = experiment: Post-emergence glasshouse herbicide test; conditions: post-emergence (sprayed after 8 days cultivation), 1000 g/h, evaluated after 13 days, five point scale
Description: as §1

SMILES	percentage damage caused to the plant, LOLPE, PRE Application (Lolium perenne (LOLPE) [1])	percentage damage caused to the plant, ECHCG, PRE Application [2]	percentage damage caused to the plant, AMARE, PRE Application [3]	percentage damage caused to the plant, SOLNI, PRE Application (Solanum nigrum (SOLNI) [4])	percentage damage caused to the plant, IPOHE, PRE Application [5]	percentage damage caused to the plant, SETFA, PRE Application (Setaria faberi (SETFA) [6])	percentage damage caused to the plant, LOLPE, POST Application (Lolium perenne (LOLPE) [7])	percentage damage caused to the plant, ECHCG, POST Application [8]	percentage damage caused to the plant, AMARE, POST Application [9]	percentage damage caused to the plant, SOLNI, POST Application (Solanum nigrum (SOLNI) [10])	percentage damage caused to the plant, IPOHE, POST Application [11]	percentage damage caused to the plant, SETFA, POST Application (Setaria faberi (SETFA) [12])
Cc1c(Cl)c(C(=O)Nc2nnnn2C)nn(C)c1=O [Compound 1.007]	5 (5=80-100%)	5 (5=80-100%)	5 (5=80-100%)	5 (5=80-100%)	5 (5=80-100%)	5 (5=80-100%)	5 (5=80-100%)	5 (5=80-100%)	5 (5=80-100%)	5 (5=80-100%)	5 (5=80-100%)	5 (5=80-100%)
CCCCNc1c(C(=O)Nc2nnnn2C)nn(C)c(=O)c1C [Compound 1.008]	1 (1=0-19%)	1 (1=0-19%)	4 (4=60-79%)	2 (2=20-39%)	2 (2=20-39%)	1 (1=0-19%)	1 (1=0-19%)	1 (1=0-19%)	5 (5=80-100%)	5 (5=80-100%)	2 (2=20-39%)	1 (1=0-19%)
CCOc1c(C(=O)Nc2nnnn2C)nn(C)c(=O)c1C [Compound 1.009]	3 (3=40-59%)	4 (4=60-79%)	5 (5=80-100%)	5 (5=80-100%)	5 (5=80-100%)	3 (3=40-59%)	4 (4=60-79%)	5 (5=80-100%)	5 (5=80-100%)	5 (5=80-100%)	5 (5=80-100%)	5 (5=80-100%)
Cn1nnnc1NC(=O)c1nn(C)c(=O)c(-c2ccccc2)c1Cl [Compound 1.010]	5 (5=80-100%)	5 (5=80-100%)	5 (5=80-100%)	5 (5=80-100%)	1 (1=0-19%)	5 (5=80-100%)	4 (4=60-79%)	5 (5=80-100%)	5 (5=80-100%)	5 (5=80-100%)	4 (4=60-79%)	5 (5=80-100%)
Cn1nnnc1NC(=O)c1nn(C)c(=O)c(-c2ccc(Cl)cc2Cl)c1Cl [Compound 1.011]	5 (5=80-100%)	5 (5=80-100%)	5 (5=80-100%)	5 (5=80-100%)	3 (3=40-59%)	5 (5=80-100%)	5 (5=80-100%)	5 (5=80-100%)	3 (3=40-59%)	5 (5=80-100%)	4 (4=60-79%)	5 (5=80-100%)
Cn1nnnc1NC(=O)c1nn(C)c(=O)c(-c2cccc(Cl)c2)c1Cl [Compound 1.012]	5 (5=80-100%)	5 (5=80-100%)	5 (5=80-100%)	5 (5=80-100%)	4 (4=60-79%)	5 (5=80-100%)	5 (5=80-100%)	5 (5=80-100%)	5 (5=80-100%)	5 (5=80-100%)	3 (3=40-59%)	4 (4=60-79%)
Cn1nnnc1NC(=O)c1nn(C)c(=O)c(-c2ccc(Cl)cc2)c1Cl [Compound 1.013]	5 (5=80-100%)	5 (5=80-100%)	5 (5=80-100%)	5 (5=80-100%)	2 (2=20-39%)	5 (5=80-100%)	5 (5=80-100%)	5 (5=80-100%)	3 (3=40-59%)	5 (5=80-100%)	2 (2=20-39%)	3 (3=40-59%)
Cc1ccc(-c2c(Cl)c(C(=O)Nc3nnnn3C)nn(C)c2=O)cc1 [Compound 1.015]	5 (5=80-100%)	5 (5=80-100%)	5 (5=80-100%)	5 (5=80-100%)	2 (2=20-39%)	5 (5=80-100%)	5 (5=80-100%)	5 (5=80-100%)	5 (5=80-100%)	5 (5=80-100%)	3 (3=40-59%)	5 (5=80-100%)
COc1ccc(-c2c(Cl)c(C(=O)Nc3nnnn3C)nn(C)c2=O)cc1 [Compound 1.016]	5 (5=80-100%)	5 (5=80-100%)	5 (5=80-100%)	5 (5=80-100%)	1 (1=0-19%)	5 (5=80-100%)	5 (5=80-100%)	5 (5=80-100%)	5 (5=80-100%)	5 (5=80-100%)	4 (4=60-79%)	5 (5=80-100%)
COc1ccc(-c2c(Cl)c(C(=O)Nc3nnnn3C)nn(C)c2=O)cc1OC [Compound 1.017]	5 (5=80-100%)	5 (5=80-100%)	5 (5=80-100%)	5 (5=80-100%)	5 (5=80-100%)	5 (5=80-100%)	5 (5=80-100%)	5 (5=80-100%)	5 (5=80-100%)	5 (5=80-100%)	5 (5=80-100%)	5 (5=80-100%)
